Where two headings read alike, the source gives them in different places.
What was measured:
[1] = biological target: GDP-bound KRAS wild-type protein (Homo sapiens, UniProt P01116); test: Binding to KRAS by surface plasmon resonance (SPR), dissociation constant KD
Outline: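 Compound binding is evaluated by SPR single-cycle kinetics, with concentrations added intermittently from low to high for 75 s each. Target surfaces carry GDP-loaded biotinylated Avi-RAS at about 100–300 RU, regenerated after each cycle; temperature 30°C. A 1:1 binding model gives KD.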

[2] = biological target: GDP-bound NRAS wild-type protein (Homo sapiens, UniProt P01111); test: Binding to NRAS by surface plasmon resonance (SPR), KD and KD ratio to KRAS
Outline: (§1)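 SPR, 30°C: Avi-biotin RAS·GDP captured via Biotin CAPture (~100–300 RU); running buffer HBS pH 7.4, 1 mM DTT, 10 mM MgCl2, 0.01% Tween 20, 10 µM GDP, 4% DMSO. Single-cycle kinetics, 100 µL/min, 75 s injections; 1:1 model → KD.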

[3] = biological target: HRAS wild-type protein (Homo sapiens, UniProt P01112); test: Binding to HRAS by surface plasmon resonance (SPR), KD and KD ratio to KRAS
Outline: as §1

[4] = system: human lung cancer strain NCI-H441; test: NCI-H441 cell proliferation inhibitory activity (CellTiter-Glo, 4 days); type: cell-based; settings: read-out: NCl-H441 IC50
Outline: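 Proliferation was scored by […] measured after the reagent was added to cultures kept at 37°C in 5% carbon dioxide.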

[5] = Single Cycle Kinetics, 1:1 binding model
[6] = ratio of KD with respect to GDP-bound NRAS wild-type protein to KD with respect to KRAS
[7] = ratio of KD with respect to HRAS wild-type protein to KD with respect to KRAS
[8] = 50% proliferation inhibitory concentration, four days
[9] = ratio of KD for GDP-bound NRAS wild-type protein to KD for KRAS
[10] = ratio of KD for HRAS wild-type protein to KD for KRAS

Chain of GDP-bound KRAS wild-type protein (P01116 1-188 isoform P01116-2): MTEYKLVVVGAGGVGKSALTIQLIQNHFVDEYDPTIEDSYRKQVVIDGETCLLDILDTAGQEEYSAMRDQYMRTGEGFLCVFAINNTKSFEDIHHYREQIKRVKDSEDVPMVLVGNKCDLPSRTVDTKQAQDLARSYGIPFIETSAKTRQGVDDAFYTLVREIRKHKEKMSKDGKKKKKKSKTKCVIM
Chain of HRAS wild-type protein (P01112 whole entry): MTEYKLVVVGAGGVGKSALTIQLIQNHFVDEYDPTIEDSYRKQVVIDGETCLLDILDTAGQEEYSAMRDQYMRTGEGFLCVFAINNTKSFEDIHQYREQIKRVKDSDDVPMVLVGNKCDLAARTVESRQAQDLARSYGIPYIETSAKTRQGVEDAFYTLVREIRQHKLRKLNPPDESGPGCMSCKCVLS
Chain of GDP-bound NRAS wild-type protein (P01111 whole entry): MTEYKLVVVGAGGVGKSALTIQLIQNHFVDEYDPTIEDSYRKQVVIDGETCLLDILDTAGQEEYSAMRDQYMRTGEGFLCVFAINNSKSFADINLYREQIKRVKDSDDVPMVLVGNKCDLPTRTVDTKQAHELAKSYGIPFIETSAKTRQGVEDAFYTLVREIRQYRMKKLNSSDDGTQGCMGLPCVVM

Row | SMILES | Kd [1, 5] | NRAS /KRAS [2, 6] | HRAS /KRAS [3, 7] | IC50 [4, 8] | Kd ([1]; Single Cycle Kinetics) | NRAS /KRAS [2, 9] | HRAS /KRAS [3, 10] | IC50 ([4]; NCI-H441 cells, 4 days) | Kd ([1]; 1:1 binding model)
1 | CCO[C@@H]1C[C@H]2C(=O)NC3(CCCC3)C(=O)N(C)[C@@H](C3CCCC3)C(=O)N(C)[C@H](C(=O)N3CCOCC3)CC(=O)N(C)[C@@H](CC)C(=O)N[C@@H]([C@@H](C)CC)C(=O)N(C)CC(=O)N(C)[C@H]3C[C@@H](C)[C@@H](C)CN(C3=O)[C@@H](Cc3ccc(C(F)(F)F)cc3)C(=O)N(C)CC(=O)N[C@@H](CCc3cc(F)c(C(F)(F)F)c(F)c3)C(=O)N2C1 [PP1353] | 0.1 nM | A (a compound having 10 or more and less than 20 is denoted as A) | B (a compound having 3 or more and less than 10 is denoted as B) | 3.7 nM |  |  |  |  | 
2 | CCCN(C)C(=O)[C@@H]1CC(=O)N(C)[C@@H](CC(C)C)C(=O)N[C@@H]([C@@H](C)CC)C(=O)N2CCC[C@H]2C(=O)N(C)[C@H]2C/C=C\CCN(C2=O)[C@@H](Cc2ccc(C(F)(F)F)cc2)C(=O)N(C)CC(=O)N[C@@H](CCc2cc(F)c(C(F)(F)F)c(F)c2)C(=O)N2C[C@H](OCC)C[C@H]2C(=O)N[C@]2(C[C@H](OC)C2)C(=O)N(C)[C@@H](C2CCCC2)C(=O)N1C [PP3355] |  |  |  |  | 1.1 nM | A (a compound having 10 or more and less than 20 is denoted as A) | A (a compound having 10 or more and less than 20 is denoted as A) | 45.5 nM | 
3 | CCO[C@@H]1C[C@H]2C(=O)NC3(CCCC3)C(=O)N(C)[C@@H](C3CCCC3)C(=O)N(C)[C@H](C(=O)N(C)C)CC(=O)N(C)[C@@H](C)C(=O)N[C@@H]([C@@H](C)CC)C(=O)N(C)CC(=O)N(C)[C@H]3C/C=C\CCN(C3=O)[C@@H](CC3CCC(F)(F)CC3)C(=O)N(C)CC(=O)N[C@@H](CCc3cc(F)c(C(F)(F)F)c(F)c3)C(=O)N2C1 [PP1456] | 0.12 nM | A (a compound having 10 or more and less than 20 is denoted as A) | A (a compound having 10 or more and less than 20 is denoted as A) | 90 nM |  |  |  |  | 
4 | CCC[C@H]1C(=O)N[C@@H]([C@@H](C)CC)C(=O)N(C2CC2)CC(=O)N(C)[C@H]2C/C=C\CCN(C2=O)[C@@H](Cc2ccc(C)cc2)C(=O)N(C)CC(=O)N[C@@H](CCc2cc(F)c(C(F)(F)F)c(F)c2)C(=O)N2C[C@H](OCC)C[C@H]2C(=O)NC2(CC(C)(C)C2)C(=O)N(C)[C@@H](CC(C)(C)C)C(=O)N(C)[C@H](C(=O)N(C)C)CC(=O)N1C [PP2718] |  |  |  |  |  | A (a compound having 10 or more and less than 20 is denoted as A) | A (a compound having 10 or more and less than 20 is denoted as A) | 7.6 nM | 0.33 nM
5 | CCO[C@@H]1C[C@H]2C(=O)NC3(CCC3)C(=O)N(C)[C@@H](C(CC)CC)C(=O)N(C)[C@H](C(=O)N(C)C)CC(=O)N(C)[C@@H](CC(C)C)C(=O)N[C@@H]([C@@H](C)CC)C(=O)N(C)CC(=O)N(C)[C@H]3C/C=C\CCN(C3=O)[C@@H](Cc3ccc(C(F)(F)F)cc3)C(=O)N(C)CC(=O)N[C@@H](CCc3cc(F)c(C(F)(F)F)c(F)c3)C(=O)N2C1 [PP1201] | 0.17 nM | AA (a compound having 20 or more is denoted as AA) | A (a compound having 10 or more and less than 20 is denoted as A) | 9.7 nM |  |  |  |  | 
6 | C#CC[C@H]1C(=O)N[C@@H]([C@@H](C)CC)C(=O)N(C2CC2)CC(=O)N(C)[C@H]2C/C=C\CCN(C2=O)[C@@H](Cc2ccc(C(F)(F)F)cc2)C(=O)N(C)CC(=O)N[C@@H](CCc2ccc(C(F)(F)F)c(OC)c2)C(=O)N2C[C@H](OCC)C[C@H]2C(=O)N(C)C2(CCC2)C(=O)N(C)[C@@H](C2CCCC2)C(=O)N(C)[C@H](C(=O)N(C)C)CC(=O)N1C [PP3242] |  |  |  |  | 0.097 nM | A (a compound having 10 or more and less than 20 is denoted as A) | A (a compound having 10 or more and less than 20 is denoted as A) | 6 nM | 
7 | CCO[C@@H]1C[C@H]2C(=O)NC3(CCC3)C(=O)N(C)[C@@H](C3CCCC3)C(=O)N(C)[C@H](C(=O)N(C)C)CC(=O)N(C)[C@@H](CC(C)C)C(=O)N[C@@H]([C@@H](C)CC)C(=O)N(C)CC(=O)N(C)[C@H]3C/C=C\CCN(C3=O)[C@@H](Cc3ccc(F)cc3C)C(=O)N(C)CC(=O)N[C@@H](CCc3ccc(Cl)c(Cl)c3)C(=O)N2C1 [PP1480] | 0.92 nM | A (a compound having 10 or more and less than 20 is denoted as A) | B (a compound having 3 or more and less than 10 is denoted as B) | 85.8 nM |  |  |  |  | 
8 | CCCO[C@@H]1C[C@H]2C(=O)NC3(CC(C)(C)C3)C(=O)N(C)[C@@H](C3CCCC3)C(=O)N(C)[C@H](C(=O)N(C)CC)CC(=O)N(C)[C@@H](COCC)C(=O)N[C@@H]([C@@H](C)CC)C(=O)N3C[C@@H](C)C[C@H]3C(=O)N(C)[C@H]3C/C=C\CCN(C3=O)[C@@H](Cc3ccc(C)cc3)C(=O)N(C)CC(=O)N[C@@H](CCc3ccc(C(F)(F)F)c(Cl)c3)C(=O)N2C1 [PP3464] |  |  |  |  | 4 nM | A (a compound having 10 or more and less than 20 is denoted as A) | A (a compound having 10 or more and less than 20 is denoted as A) | 162 nM | 
9 | CCOC[C@H]1C(=O)N[C@@H]([C@@H](C)CC)C(=O)N(C2CC2)CC(=O)N(C)[C@H]2C/C=C\CCN(C2=O)[C@@H](Cc2ccc(C)cc2)C(=O)N(C)CC(=O)N[C@@H](CCc2cc(F)c(C(F)(F)F)c(F)c2)C(=O)N2C[C@H](OCC)C[C@H]2C(=O)NC2(CC(C)(C)C2)C(=O)N(C)[C@@H](CC(C)(C)C)C(=O)N(C)[C@H](C(=O)N(C)C)CC(=O)N1C [PP2720] |  |  |  |  |  | A (a compound having 10 or more and less than 20 is denoted as A) | A (a compound having 10 or more and less than 20 is denoted as A) | 7.7 nM | 0.35 nM
10 | CCOC[C@H]1C(=O)N[C@@H]([C@@H](C)CC)C(=O)N(C)CC(=O)N(C)[C@H]2C/C=C\CCN(C2=O)[C@@H](Cc2ccc(C)cc2)C(=O)N(C)CC(=O)N[C@@H](CCc2ccc(C(F)(F)F)c(OC)c2)C(=O)N2C[C@H](C)C[C@H]2C(=O)NC2(CC(C)(C)C2)C(=O)N(C)[C@@H](C2CCCC2)C(=O)N(C)[C@H](C(=O)N(C)C)CC(=O)N1C [PP2393] |  |  |  |  |  | A (a compound having 10 or more and less than 20 is denoted as A) | A (a compound having 10 or more and less than 20 is denoted as A) | 28.2 nM | 0.12 nM
11 | CCC[C@@H]1NC(=O)C[C@@H](C(=O)N(C)C)N(C)C(=O)[C@H](C2CCCC2)N(C)C(=O)C2(CC(C)(C)C2)NC(=O)[C@@H]2C[C@@H](OCC)CN2C(=O)[C@H](CCc2ccc(C(F)(F)F)c(OC)c2)NC(=O)CN(C)C(=O)[C@H](Cc2ccc(C(F)(F)F)cc2)N2CC/C=C\C[C@@H](C2=O)N(C)C(=O)CN(C)C(=O)[C@H]([C@@H](C)CC)NC1=O [PP3447] |  |  |  |  | 0.16 nM | A (a compound having 10 or more and less than 20 is denoted as A) | A (a compound having 10 or more and less than 20 is denoted as A) | 19.1 nM | 
12 | CCC[C@H]1C(=O)N[C@@H]([C@@H](C)CC)C(=O)N(C2CC2)CC(=O)N(C)[C@H]2C/C=C\CCN(C2=O)[C@@H](CC2CCC(F)(F)CC2)C(=O)N(C)CC(=O)N[C@@H](CCc2ccc(Cl)c(Cl)c2)C(=O)N2C[C@H](OC(C)C)C[C@H]2C(=O)NC2(CC(C)(C)C2)C(=O)N(C)[C@@H](C2CCCC2)C(=O)N(C)[C@H](C(=O)N(C)C)CC(=O)N1C [PP2521] |  |  |  |  |  | A (a compound having 10 or more and less than 20 is denoted as A) | A (a compound having 10 or more and less than 20 is denoted as A) | 129 nM | 2.8 nM
13 | CCO[C@@H]1C[C@H]2C(=O)NC3(CC(C)(C)C3)C(=O)N(C)[C@@H](C3CCCC3)C(=O)N(C)[C@H](C(=O)N(C)CC)CC(=O)N(C)[C@@H]([C@H](C)OC)C(=O)N[C@@H]([C@@H](C)CC)C(=O)N3CCC[C@H]3C(=O)N(C)[C@H]3C/C=C\CCN(C3=O)[C@@H](Cc3ccc(C(F)(F)F)cc3)C(=O)N(C)CC(=O)N[C@@H](CCc3ccc(C(F)(F)F)c(Cl)c3)C(=O)N2C1 [PP3224] |  |  |  |  | 1.9 nM | A (a compound having 10 or more and less than 20 is denoted as A) | A (a compound having 10 or more and less than 20 is denoted as A) | 55.4 nM | 
14 | CCC(CC)[C@H]1C(=O)N(C)[C@H](C(=O)N(C)C)CC(=O)N(C)[C@@H](COC)C(=O)N[C@@H]([C@@H](C)CC)C(=O)N(C)CC(=O)N(C)[C@H]2C/C=C\CCN(C2=O)[C@@H](CC2CCC(F)(F)CC2)C(=O)N(C)CC(=O)N[C@@H](CCc2ccc(C(F)(F)F)c(OC)c2)C(=O)N2C[C@@H](C)C[C@H]2C(=O)NC2(CC(C)(C)C2)C(=O)N1C [PP2442] |  |  |  |  |  | A (a compound having 10 or more and less than 20 is denoted as A) | A (a compound having 10 or more and less than 20 is denoted as A) | 79.7 nM | 0.97 nM
15 | C#CC[C@H]1C(=O)N[C@@H]([C@@H](C)CC)C(=O)N(C2CC2)CC(=O)N(C)[C@H]2C/C=C\CCN(C2=O)[C@@H](Cc2ccc(C)cc2)C(=O)N(C)CC(=O)N[C@@H](CCc2ccc(C(F)(F)F)c(OC)c2)C(=O)N2C[C@H](OCC)C[C@H]2C(=O)N(C)C2(CCC2)C(=O)N(C)[C@@H](C2CCCC2)C(=O)N(C)[C@H](C(=O)N(C)C)CC(=O)N1C [PP3248] |  |  |  |  | 0.078 nM | A (a compound having 10 or more and less than 20 is denoted as A) | A (a compound having 10 or more and less than 20 is denoted as A) | 4.5 nM | 

Reference: EP4603105A1, “PHARMACEUTICAL COMPOSITION CONTAINING CYCLIC COMPOUND HAVING SELECTIVE KRAS INHIBITORY EFFECT AGAINST HRAS AND NRAS” (CHUGAI SEIYAKU KABUSHIKI KAISHA, priority 2022, dated 2024)
